# Assay results from publication PMC3705412, “PTP1B Inhibitory and Anti-Inflammatory Effects of Secondary Metabolites Isolated from the Marine-Derived Fungus Penicillium sp. JF-55” (Marine Drugs, 2013).
# Assays:
# [1] = test system: IL-1β production in murine peritoneal macrophages; assay: IL-1β production in LPS-stimulated macrophages, ELISA; assay type: cell-based, murine (C57BL/6 mice); conditions: Mus musculus, Peritoneal macrophage; pre-treated 12 h, LPS 1 μg/mL 18 h
# Experimental: (§1) C57BL/6 mice were purchased from Orient Bio Co. (Sungnam, Kyung-Kido, Korea). TG-elicited peritoneal macrophages were harvested four days after intraperitoneal (i.p.) injection of 3 mL of TG [37]. Peritoneal lavage was performed using 8 mL of Hanks’ Balanced Salt Solution containing 10 U/mL heparin. The cells were distributed in Roswell Park Memorial Institute medium (RPMI) supplemented with 10% heat-inactivated FBS, in 6-well tissue culture plates (5 × 10^6 cells/mL). The level of PGE2, TNF-α or IL-1β present in each sample was determined using a commercially available kit from R & D Systems. The assay was performed according to the manufacturer’s instructions. Briefly, murine peritoneal macrophages were cultured in 24-well plates, pre-incubated for 12 h with different concentrations of compounds 1–3, and then stimulated for 18 h with LPS. The cell culture supernatants were then immediately collected after treatment and centrifuged at 13,000× g for 2 min to remove particulate matter. The medium was added to a 96-well plate pre-coated with affinity-purified PGE2-specific polyclonal antibodies or the medium was added to a 96-well plate pre-coated with affinity-purified polyclonal antibodies that were specific to mouse TNF-α or IL-1β. An enzyme-linked polyclonal antibody specific for PGE2, mouse TNF-α or IL-1β was added to the wells for 20 h, followed by a final wash to remove any unbound antibody-enzyme reagent. A substrate solution was added, and the intensity of the color produced, which was measured at 450 nm (the correction wavelength was set at 540 nm or 570 nm), was proportional to the amount of PGE2, TNF-α or IL-1β present.
# [2] = target: T1, PTP1B (human, recombinant) (Homo sapiens, UniProt P18031); assay: PTP1B assay (pNPP hydrolysis); assay type: biochemical; conditions: for IC50: 2 mM pNPP, pH 6.0, 30 °C, 30 min, read-out: PTP1B inhibitory activity IC50
# T1 construct: purchased BIOMOL Research Laboratories, Inc
# T1 sequence (P18031 1-435): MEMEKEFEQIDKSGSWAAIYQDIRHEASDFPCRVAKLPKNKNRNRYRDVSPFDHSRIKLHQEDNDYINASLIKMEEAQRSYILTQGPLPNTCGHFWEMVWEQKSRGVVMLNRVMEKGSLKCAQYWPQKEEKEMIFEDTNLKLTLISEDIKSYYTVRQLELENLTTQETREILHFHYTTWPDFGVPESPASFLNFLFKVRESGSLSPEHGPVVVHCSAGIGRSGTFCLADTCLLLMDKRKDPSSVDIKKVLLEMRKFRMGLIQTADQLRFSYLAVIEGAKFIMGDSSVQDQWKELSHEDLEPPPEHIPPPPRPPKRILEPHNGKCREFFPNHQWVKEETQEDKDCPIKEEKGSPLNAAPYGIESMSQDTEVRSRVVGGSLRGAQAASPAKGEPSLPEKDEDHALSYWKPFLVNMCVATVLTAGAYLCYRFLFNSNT
# Experimental: PTP1B (human, recombinant) was purchased from BIOMOL Research Laboratories, Inc. Enzyme activity was measured in a reaction mixture containing 2 mM p-nitrophenyl phosphate (pNPP) in 50 mM citrate, pH 6.0 (composition: 0.1 M NaCl, 1 mM EDTA, and 1 mM dithiothreitol (DTT)). The reaction mixture was placed in an incubator maintained at 30 °C for 30 min, and the reaction was terminated by the addition of 1 N NaOH. The amount of p-nitrophenol produced was estimated by measuring the increase in absorbance at 405 nm. The nonenzymatic hydrolysis of 2 mM pNPP was corrected by measuring the increase in absorbance at 405 nm in the absence of PTP1B enzyme. For the kinetic analysis, the reaction mixture consisted of different concentrations of pNPP as a PTP1B substrate in the absence or presence of compound 1, and assays were performed as described above. The Michaelis-Menten constant (Km) and maximum velocity (Vmax) of PTP1B were determined by the Lineweaver-Burk plot using a GraphPad Prism® 4 program (GraphPad Software Inc., San Diego, CA, USA).
# [3] = test system: iNOS-derived NO production in murine peritoneal macrophages; assay: Nitrite (NO) production in LPS-stimulated macrophages, Griess reaction; assay type: cell-based, murine (C57BL/6 mice); conditions: Mus musculus, Peritoneal macrophage; pre-treated 12 h, LPS 1 μg/mL 18 h
# Experimental: The expression of pro-inflammatory enzymes, including COX-2 and iNOS, plays an important role in immune-activated macrophages via the production of COX-2-derived PGE2 and iNOS-derived NO [20, 21]. To investigate the effects of compounds on iNOS-derived NO and COX-2-derived PGE2 production, and iNOS and COX-2 expression in LPS-stimulated macrophages, murine peritoneal macrophages were stimulated with LPS (1 μg/mL) for 18 h in the presence or absence of non-cytotoxic concentrations of compounds 1–3 (Figure S1). […] The finding that penstyrylpyrone (1) suppressed LPS-induced pro-inflammatory mediators, such as NO, PGE2, iNOS, and COX-2, led further investigation of the effects of penstyrylpyrone (1) on LPS-induced TNF-α and IL-1β production, which are other pro-inflammatory mediators.
# C57BL/6 mice were purchased from Orient Bio Co. (Sungnam, Kyung-Kido, Korea). TG-elicited peritoneal macrophages were harvested four days after intraperitoneal (i.p.) injection of 3 mL of TG [37]. Peritoneal lavage was performed using 8 mL of Hanks’ Balanced Salt Solution containing 10 U/mL heparin. The cells were distributed in Roswell Park Memorial Institute medium (RPMI) supplemented with 10% heat-inactivated FBS, in 6-well tissue culture plates (5 × 10^6 cells/mL).
# The production of nitrite, a stable end product of NO oxidation, was used as a measure of iNOS activity. The nitrite present in the conditioned medium was determined using a method based on the Griess reaction.
# [4] = test system: COX-2-derived PGE2 production in murine peritoneal macrophages; assay: PGE2 production in LPS-stimulated macrophages, ELISA; assay type: cell-based, murine (C57BL/6 mice); conditions: Mus musculus, Peritoneal macrophage; pre-treated 12 h, LPS 1 μg/mL 18 h
# Experimental: as §1
# [5] = test system: TNF-α production in murine peritoneal macrophages; assay: TNF-α production in LPS-stimulated macrophages, ELISA; assay type: cell-based, murine (C57BL/6 mice); conditions: Mus musculus, Peritoneal macrophage; pre-treated 12 h, LPS 1 μg/mL 18 h
# Experimental: as §1
# CD4 = test system: CD4; set-up: method as in doi:10.1351/pac199466102383; conditions: previously reported ref 43; cited from earlier work
IC50 [1] [µM],IC50 [2] [µM],IC50 [3] [µM],IC50 [4] [µM],IC50 [5] [µM],"Mode of PTP1B inhibition (Lineweaver-Burk, non-linear regression) ([2]; different concentrations of pNPP)",SMILES,CD4-binding activity (CD4)
> 40,> 25.8,> 40,> 40,> 40,–,"Cc1cc(=O)c2c(o1)-c1c(cc(O)c(O)c1C(=O)O)OC2 [Citromycetin (3), citromycetin]",weak
> 40,1.9,> 40,> 40,> 40,competitive,"CC1=Cc2oc3cc(O)c(O)c(C(=O)O)c3c(=O)c2CO1 [Anhydrofulvic acid (2), anhydrofulvic acid]",weak
